From BindingDB's records for doi:10.1016/j.bmc.2019.05.001 (2019)

Assay: Inhibition of mouse GAT2 expressed in HEK293 cells assessed as reduction in [3H]GABA uptake preincubated for 25 mins followed by [3H]GABA addition and measured after 10 mins by liquid scintillation counting method

IC50: 53.7 µM
SMILES: O=C(O)C1CCN(CCON=Cc2ccccc2-c2ccc(Cl)cc2Cl)C1 (stereo unspecified)
